Assay results taken from patent US20240059735A1, “COMPOSITIONS AND METHODS FOR THE PREVENTION AND TREATMENT OF MIT[…]” (Stealth BioTherapeutics Inc., priority 2016, published 2024).
Where a SMILES comes first, the peptide text is derived from it. [ ]: non-standard residue; d: D form. Dmt = Cc1cc(O)cc(C)c1C[C@H](N)C(=O)O

Key:
[1] = system: several mammalian cell types; conditions: cited from earlier work
[2] = 0.01-0.25 mg/kg/hr IV, five days
Experimental: Control mitochondrial myopathy subjects (Group 4) received equal volumes of saline solution administered for two hours. All groups were treated for five consecutive days. The demographics of the subjects are disclosed in Table 5.

Compound	penetration of the plasma membrane [1]	serious adverse events [2]	vital signs, electrocardiograms, clinical laboratory findings [2]
2′,6′-Dmt-D-Arg-Phe-Lys-NH2	readily penetrates the plasma membrane of several mammalian cell types in an energy-independent manner		
Cc1cc(O)cc(C)c1C[C@H](NC(=O)[C@H](N)CCCNC(=N)N)C(=O)N[C@@H](CCCCN)C(=O)N[C@@H](Cc1ccccc1)C(N)=O [D-Arg-2′,6′-Dmt-Lys-Phe-NH2] (H-[dR][Dmt]KF-NH2)		None of the test subjects exhibited any serious adverse events	no significant trends changes
